Experimental data reported in ChEMBL document CHEMBL3044925, “Synthesis of piperazino and morpholino derivatives of aryloxypropane with potential analgesic and possible antimigraine activities” (Med Chem Res, 2011).

Columns and labels:
Mus musculus [1] = experiment: Neurotoxicity against Mus musculus MFI (mouse) assessed as epilepsy at 180 mg/kg, ip; format: toxicity, organism-based; parameters: dose 180 mg/kg, route intraperitoneal; conditions: in vivo
Mus musculus [2] = experiment: […] activity in Mus musculus MFI (mouse) assessed as inhibition of PBQ-induced writhing at 120 mg/kg, ip administered 1.5 hr prior to PBQ-challenge measured after 10 min relative to aspirin; format: functional; conditions: route intraperitoneal
Mus musculus [3] = experiment: Neurotoxicity against Mus musculus MFI (mouse) assessed as muscle twitching at 120 mg/kg, ip; format: toxicity, organism-based, Muscle tissue; parameters: dose 120 mg/kg, route intraperitoneal; conditions: in vivo
Mus musculus [4] = experiment: Neurotoxicity against Mus musculus MFI (mouse) assessed as eye protrusion at 60 mg/kg, ip; format: toxicity, organism-based; parameters: dose 60 mg/kg, route intraperitoneal; conditions: in vivo
Mus musculus [5] = experiment: […] activity in Mus musculus MFI (mouse) assessed as inhibition of PBQ-induced writhing at 60 mg/kg, ip administered 1.5 hr prior to PBQ-challenge measured after 10 min relative to aspirin; format: functional; conditions: route intraperitoneal
Mus musculus [6] = experiment: Neurotoxicity against Mus musculus MFI (mouse) assessed as skeletal muscle incoordination at 120 mg/kg, ip; format: toxicity, organism-based, Muscle tissue; parameters: dose 120 mg/kg, route intraperitoneal; conditions: in vivo
Mus musculus [7] = experiment: Neurotoxicity against Mus musculus MFI (mouse) assessed as tail erection at 180 mg/kg, ip; format: toxicity, organism-based; parameters: dose 180 mg/kg, route intraperitoneal; conditions: in vivo
Mus musculus [8] = experiment: Neurotoxicity against Mus musculus MFI (mouse) assessed as skeletal muscle incoordination at 180 mg/kg, ip; format: toxicity, organism-based, Muscle tissue; parameters: dose 180 mg/kg, route intraperitoneal; conditions: in vivo
Mus musculus [9] = experiment: […] activity in Mus musculus MFI (mouse) assessed as inhibition of PBQ-induced writhing at 180 mg/kg, ip administered 1.5 hr prior to PBQ-challenge measured after 10 min relative to aspirin; format: functional; conditions: route intraperitoneal
Mus musculus [10] = experiment: Neurotoxicity against Mus musculus MFI (mouse) assessed as tail erection at 120 mg/kg, ip; format: toxicity, organism-based; parameters: dose 120 mg/kg, route intraperitoneal; conditions: in vivo
Mus musculus [11] = experiment: Neurotoxicity against Mus musculus MFI (mouse) assessed as muscle twitching at 180 mg/kg, ip; format: toxicity, organism-based, Muscle tissue; parameters: dose 180 mg/kg, route intraperitoneal; conditions: in vivo
Mus musculus [12] = experiment: Neurotoxicity against Mus musculus MFI (mouse) assessed as epilepsy at 60 mg/kg, ip; format: toxicity, organism-based; parameters: dose 60 mg/kg, route intraperitoneal; conditions: in vivo
Mus musculus [13] = experiment: Neurotoxicity against Mus musculus MFI (mouse) assessed as hair erection at 120 mg/kg, ip; format: toxicity, organism-based; parameters: dose 120 mg/kg, route intraperitoneal; conditions: in vivo
Mus musculus [14] = experiment: Neurotoxicity against Mus musculus MFI (mouse) assessed as epilepsy at 120 mg/kg, ip; format: toxicity, organism-based; parameters: dose 120 mg/kg, route intraperitoneal; conditions: in vivo
Mus musculus [15] = experiment: Neurotoxicity against Mus musculus MFI (mouse) assessed as effect on respiration at 60 mg/kg, ip; format: toxicity, organism-based; parameters: dose 60 mg/kg, route intraperitoneal; conditions: in vivo
Mus musculus [16] = experiment: Neurotoxicity against Mus musculus MFI (mouse) assessed as tremors at 60 mg/kg, ip; format: toxicity, organism-based; parameters: dose 60 mg/kg, route intraperitoneal; conditions: in vivo
Mus musculus [17] = experiment: Neurotoxicity against Mus musculus MFI (mouse) assessed as muscle twitching at 60 mg/kg, ip; format: toxicity, organism-based, Muscle tissue; parameters: dose 60 mg/kg, route intraperitoneal; conditions: in vivo
Mus musculus [18] = experiment: Neurotoxicity in ip dosed Mus musculus MFI (mouse); format: toxicity, organism-based; conditions: in vivo
Mus musculus [19] = experiment: Neurotoxicity against Mus musculus MFI (mouse) assessed as skeletal muscle incoordination at 60 mg/kg, ip; format: toxicity, organism-based, Muscle tissue; parameters: dose 60 mg/kg, route intraperitoneal; conditions: in vivo
Mus musculus [20] = experiment: Neurotoxicity against Mus musculus MFI (mouse) assessed as effect on respiration at 120 mg/kg, ip; format: toxicity, organism-based; parameters: dose 120 mg/kg, route intraperitoneal; conditions: in vivo
Mus musculus [21] = experiment: Neurotoxicity against Mus musculus MFI (mouse) assessed as irritability at 180 mg/kg, ip; format: toxicity, organism-based; parameters: dose 180 mg/kg, route intraperitoneal; conditions: in vivo
Mus musculus [22] = experiment: Neurotoxicity against Mus musculus MFI (mouse) assessed as hair erection at 60 mg/kg, ip; format: toxicity, organism-based; parameters: dose 60 mg/kg, route intraperitoneal; conditions: in vivo
Mus musculus [23] = experiment: Neurotoxicity against Mus musculus MFI (mouse) assessed as effect on respiration at 180 mg/kg, ip; format: toxicity, organism-based; parameters: dose 180 mg/kg, route intraperitoneal; conditions: in vivo
Mus musculus [24] = experiment: Neurotoxicity against Mus musculus MFI (mouse) assessed as tail erection at 60 mg/kg, ip; format: toxicity, organism-based; parameters: dose 60 mg/kg, route intraperitoneal; conditions: in vivo
Mus musculus [25] = experiment: Neurotoxicity against Mus musculus MFI (mouse) assessed as excitation at 120 mg/kg, ip; format: toxicity, organism-based; parameters: dose 120 mg/kg, route intraperitoneal; conditions: in vivo
Mus musculus [26] = experiment: […] activity in ip dosed Mus musculus MFI (mouse) assessed as inhibition of PBQ-induced writhing administered 1.5 hr prior to PBQ-challenge measured after 10 min; format: functional; conditions: read-out: MED
Mus musculus [27] = experiment: Neurotoxicity against Mus musculus MFI (mouse) assessed as irritability at 120 mg/kg, ip; format: toxicity, organism-based; parameters: dose 120 mg/kg, route intraperitoneal; conditions: in vivo
Mus musculus [28] = experiment: Neurotoxicity against Mus musculus MFI (mouse) assessed as eye protrusion at 120 mg/kg, ip; format: toxicity, organism-based; parameters: dose 120 mg/kg, route intraperitoneal; conditions: in vivo
Mus musculus [29] = experiment: Neurotoxicity against Mus musculus MFI (mouse) assessed as excitation at 180 mg/kg, ip; format: toxicity, organism-based; parameters: dose 180 mg/kg, route intraperitoneal; conditions: in vivo
Mus musculus [30] = experiment: Neurotoxicity against Mus musculus MFI (mouse) assessed as irritability at 60 mg/kg, ip; format: toxicity, organism-based; parameters: dose 60 mg/kg, route intraperitoneal; conditions: in vivo
Mus musculus [31] = experiment: Neurotoxicity against Mus musculus MFI (mouse) assessed as excitation at 60 mg/kg, ip; format: toxicity, organism-based; parameters: dose 60 mg/kg, route intraperitoneal; conditions: in vivo
Mus musculus [32] = experiment: Neurotoxicity against Mus musculus MFI (mouse) assessed as tremors at 180 mg/kg, ip; format: toxicity, organism-based; parameters: dose 180 mg/kg, route intraperitoneal; conditions: in vivo
Mus musculus [33] = experiment: Neurotoxicity against Mus musculus MFI (mouse) assessed as tremors at 120 mg/kg, ip; format: toxicity, organism-based; parameters: dose 120 mg/kg, route intraperitoneal; conditions: in vivo
Mus musculus [34] = experiment: Neurotoxicity against Mus musculus MFI (mouse) assessed as eye protrusion at 180 mg/kg, ip; format: toxicity, organism-based; parameters: dose 180 mg/kg, route intraperitoneal; conditions: in vivo
Mus musculus [35] = experiment: Neurotoxicity against Mus musculus MFI (mouse) assessed as hair erection at 180 mg/kg, ip; format: toxicity, organism-based; parameters: dose 180 mg/kg, route intraperitoneal; conditions: in vivo
Mus musculus [36] = experiment: […] activity in Mus musculus MFI (mouse) assessed as inhibition of PBQ-induced writhing at 100 mg/kg, ip administered 1.5 hr prior to PBQ-challenge measured after 10 min relative to control; format: functional; conditions: route intraperitoneal

`CC(COc1cccc(Cl)c1Cl)N1CCN(C)CC1.O=C(O)C(=O)O` (racemic) was tested, and the Activity (Mus musculus [1]) was “Toxic”, the inhibition in vivo at 120 mg/kg (Mus musculus [2]) was 75% and the Activity (Mus musculus [3]) was “Toxic”. For the same compound, the Activity (Mus musculus [4]) was “Toxic”, the inhibition in vivo at 60 mg/kg (Mus musculus [5]) was 37.5% and the Activity (Mus musculus [6]) was “Toxic”. The Activity (Mus musculus [7]) was “Toxic”, the Activity (Mus musculus [8]) was “Toxic” and the inhibition in vivo at 180 mg/kg (Mus musculus [9]) was 100%. For the same compound, the Activity (Mus musculus [10]) was “Toxic”, the Activity (Mus musculus [11]) was “Toxic” and the Activity (Mus musculus [12]) was “Toxic”. For the same compound, the Activity (Mus musculus [13]) was “Toxic”, the Activity (Mus musculus [14]) was “Toxic” and the Activity (Mus musculus [15]) was “Toxic”. The Activity (Mus musculus [16]) was “Toxic”, the Activity (Mus musculus [17]) was “Toxic” and the MTC (Mus musculus [18]) was 120 mg/kg. The Activity (Mus musculus [19]) was “Toxic”, the Activity (Mus musculus [20]) was “Toxic” and the Activity (Mus musculus [21]) was “Toxic”. For the same compound, the Activity (Mus musculus [22]) was “Toxic”, the Activity (Mus musculus [23]) was “Toxic” and the Activity (Mus musculus [24]) was “Toxic”. The Activity (Mus musculus [25]) was “Toxic”, the minimal effective dose (Mus musculus [26]) was 60 mg/kg and the Activity (Mus musculus [27]) was “Toxic”. For the same compound, the Activity (Mus musculus [28]) was “Toxic”, the Activity (Mus musculus [29]) was “Toxic” and the Activity (Mus musculus [30]) was “Toxic”. The Activity (Mus musculus [31]) was “Toxic”, the Activity (Mus musculus [32]) was “Toxic” and the Activity (Mus musculus [33]) was “Toxic”. The Activity (Mus musculus [34]) was “Toxic” and the Activity (Mus musculus [35]) was “Toxic”.

`CC(=O)Oc1ccccc1C(=O)O` [ASPIRIN] was tested, and the inhibition in vivo at 100 mg/kg (Mus musculus [36]) was 100%.
